Where “and” joins values, the source holds several entries; their conditions need not be identical. Identical values can stand only once.
How the values were obtained:
[1] = biological target: T1, Alpha-1A adrenergic receptor (Homo sapiens, UniProt P35348); assay type: functional, cell-based
T1 sequence (P35348 whole entry): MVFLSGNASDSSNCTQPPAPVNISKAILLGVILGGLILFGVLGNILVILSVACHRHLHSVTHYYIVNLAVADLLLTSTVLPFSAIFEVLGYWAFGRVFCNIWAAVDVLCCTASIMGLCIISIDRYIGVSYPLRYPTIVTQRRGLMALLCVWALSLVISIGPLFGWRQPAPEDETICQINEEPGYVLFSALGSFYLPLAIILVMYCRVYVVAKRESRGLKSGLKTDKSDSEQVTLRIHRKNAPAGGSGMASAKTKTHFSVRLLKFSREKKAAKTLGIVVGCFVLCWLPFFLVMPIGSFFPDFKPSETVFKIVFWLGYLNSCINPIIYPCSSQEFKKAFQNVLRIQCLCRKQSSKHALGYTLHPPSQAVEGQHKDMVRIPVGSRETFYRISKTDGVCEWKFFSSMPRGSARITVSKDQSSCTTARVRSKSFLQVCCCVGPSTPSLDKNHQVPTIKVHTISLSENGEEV

[2] = biological target: T2, Estrogen receptor (Homo sapiens, UniProt P03372)
T2 sequence (P03372 whole entry): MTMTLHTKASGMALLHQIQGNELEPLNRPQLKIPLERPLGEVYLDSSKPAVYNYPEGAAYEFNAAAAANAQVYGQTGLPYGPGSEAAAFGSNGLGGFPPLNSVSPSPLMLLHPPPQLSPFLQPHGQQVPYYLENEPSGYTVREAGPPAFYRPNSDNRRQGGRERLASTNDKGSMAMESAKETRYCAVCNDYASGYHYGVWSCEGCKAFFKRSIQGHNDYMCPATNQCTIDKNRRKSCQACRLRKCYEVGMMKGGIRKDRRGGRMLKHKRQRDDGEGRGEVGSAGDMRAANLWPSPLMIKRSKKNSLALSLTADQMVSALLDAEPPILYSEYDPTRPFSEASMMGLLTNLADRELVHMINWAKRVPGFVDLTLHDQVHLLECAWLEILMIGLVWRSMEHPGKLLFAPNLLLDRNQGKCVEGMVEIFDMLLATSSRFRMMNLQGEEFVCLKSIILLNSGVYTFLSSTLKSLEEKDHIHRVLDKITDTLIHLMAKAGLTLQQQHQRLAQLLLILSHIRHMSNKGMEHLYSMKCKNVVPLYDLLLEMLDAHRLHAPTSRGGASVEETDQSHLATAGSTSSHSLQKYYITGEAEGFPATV

[3] = biological target: Glutamate receptor ionotropic, NMDA 1 (Rattus norvegicus, UniProt P35439)
[4] = biological target: T3, Beta-2 adrenergic receptor (Homo sapiens, UniProt P07550); assay type: functional, cell-based
T3 sequence (P07550 whole entry): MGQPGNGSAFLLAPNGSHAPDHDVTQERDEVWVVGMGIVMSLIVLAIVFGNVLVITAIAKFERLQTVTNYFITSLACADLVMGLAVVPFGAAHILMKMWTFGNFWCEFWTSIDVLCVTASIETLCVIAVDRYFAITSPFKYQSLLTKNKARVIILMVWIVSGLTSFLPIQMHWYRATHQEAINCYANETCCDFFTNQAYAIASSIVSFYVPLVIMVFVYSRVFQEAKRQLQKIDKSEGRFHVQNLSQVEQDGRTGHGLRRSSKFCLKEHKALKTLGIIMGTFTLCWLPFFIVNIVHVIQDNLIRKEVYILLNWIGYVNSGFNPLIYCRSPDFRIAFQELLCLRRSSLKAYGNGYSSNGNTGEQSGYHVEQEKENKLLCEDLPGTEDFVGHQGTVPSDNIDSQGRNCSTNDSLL

[5] = biological target: Kappa-type opioid receptor (Homo sapiens, UniProt P41145)
Sequence of Kappa-type opioid receptor (P41145 whole entry): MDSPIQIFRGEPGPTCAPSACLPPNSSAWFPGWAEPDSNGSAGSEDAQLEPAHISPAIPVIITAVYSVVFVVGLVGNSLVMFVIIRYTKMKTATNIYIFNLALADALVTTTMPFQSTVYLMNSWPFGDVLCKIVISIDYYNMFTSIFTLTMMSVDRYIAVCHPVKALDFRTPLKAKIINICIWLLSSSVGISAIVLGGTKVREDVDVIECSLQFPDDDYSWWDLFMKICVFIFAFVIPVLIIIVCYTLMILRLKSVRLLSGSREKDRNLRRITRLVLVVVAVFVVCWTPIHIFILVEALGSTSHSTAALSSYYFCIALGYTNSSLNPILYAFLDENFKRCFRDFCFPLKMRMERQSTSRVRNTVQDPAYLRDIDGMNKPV

[6] = biological target: T4, Progesterone receptor (Homo sapiens, UniProt P06401); assay type: functional
T4 sequence (P06401 whole entry): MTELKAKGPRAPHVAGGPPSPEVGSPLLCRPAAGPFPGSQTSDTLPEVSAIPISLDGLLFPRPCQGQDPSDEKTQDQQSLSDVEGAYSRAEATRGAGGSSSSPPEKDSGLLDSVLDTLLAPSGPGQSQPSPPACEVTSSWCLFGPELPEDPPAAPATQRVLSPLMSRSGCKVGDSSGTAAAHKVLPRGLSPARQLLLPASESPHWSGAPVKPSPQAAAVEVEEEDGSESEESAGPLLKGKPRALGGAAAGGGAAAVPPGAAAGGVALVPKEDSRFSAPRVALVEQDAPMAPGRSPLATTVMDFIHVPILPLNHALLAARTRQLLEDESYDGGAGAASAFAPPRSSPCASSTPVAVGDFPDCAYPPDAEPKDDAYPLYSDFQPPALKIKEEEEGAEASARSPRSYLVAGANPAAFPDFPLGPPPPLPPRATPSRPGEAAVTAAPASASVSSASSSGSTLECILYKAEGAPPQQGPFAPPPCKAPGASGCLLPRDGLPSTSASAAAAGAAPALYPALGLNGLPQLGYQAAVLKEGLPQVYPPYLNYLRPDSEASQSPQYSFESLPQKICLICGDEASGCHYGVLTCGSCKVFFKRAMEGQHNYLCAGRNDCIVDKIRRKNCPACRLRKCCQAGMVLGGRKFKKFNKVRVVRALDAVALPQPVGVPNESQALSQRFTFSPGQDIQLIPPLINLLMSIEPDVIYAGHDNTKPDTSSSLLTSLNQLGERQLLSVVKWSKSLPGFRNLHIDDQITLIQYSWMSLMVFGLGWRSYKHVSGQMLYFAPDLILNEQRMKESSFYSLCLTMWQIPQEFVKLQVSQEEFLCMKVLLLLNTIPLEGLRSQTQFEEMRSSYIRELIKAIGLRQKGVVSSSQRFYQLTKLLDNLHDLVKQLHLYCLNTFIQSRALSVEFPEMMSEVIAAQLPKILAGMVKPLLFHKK

[7] = biological target: T5, Mu-type opioid receptor (Homo sapiens, UniProt P35372); test: biochemical; assay type: functional
T5 sequence (P35372 whole entry): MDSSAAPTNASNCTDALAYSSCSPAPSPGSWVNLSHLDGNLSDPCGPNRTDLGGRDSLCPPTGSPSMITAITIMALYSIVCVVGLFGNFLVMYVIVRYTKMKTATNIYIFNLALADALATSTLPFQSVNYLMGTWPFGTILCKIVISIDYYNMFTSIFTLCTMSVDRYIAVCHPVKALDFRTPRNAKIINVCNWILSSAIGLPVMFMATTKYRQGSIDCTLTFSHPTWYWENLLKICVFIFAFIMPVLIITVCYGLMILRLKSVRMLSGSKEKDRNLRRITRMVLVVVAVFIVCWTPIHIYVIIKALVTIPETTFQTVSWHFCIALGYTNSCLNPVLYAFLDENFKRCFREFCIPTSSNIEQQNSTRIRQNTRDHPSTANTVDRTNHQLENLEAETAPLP

[8] = biological target: T4, Progesterone receptor; assay type: functional; remark: listed apart in the source
[9] = biological target: T5, Mu-type opioid receptor
[10] = biological target: T3, Beta-2 adrenergic receptor
[11] = biological target: Prostaglandin G/H synthase 1 (Homo sapiens, UniProt P23219); assay type: functional
Sequence of Prostaglandin G/H synthase 1 (P23219 whole entry): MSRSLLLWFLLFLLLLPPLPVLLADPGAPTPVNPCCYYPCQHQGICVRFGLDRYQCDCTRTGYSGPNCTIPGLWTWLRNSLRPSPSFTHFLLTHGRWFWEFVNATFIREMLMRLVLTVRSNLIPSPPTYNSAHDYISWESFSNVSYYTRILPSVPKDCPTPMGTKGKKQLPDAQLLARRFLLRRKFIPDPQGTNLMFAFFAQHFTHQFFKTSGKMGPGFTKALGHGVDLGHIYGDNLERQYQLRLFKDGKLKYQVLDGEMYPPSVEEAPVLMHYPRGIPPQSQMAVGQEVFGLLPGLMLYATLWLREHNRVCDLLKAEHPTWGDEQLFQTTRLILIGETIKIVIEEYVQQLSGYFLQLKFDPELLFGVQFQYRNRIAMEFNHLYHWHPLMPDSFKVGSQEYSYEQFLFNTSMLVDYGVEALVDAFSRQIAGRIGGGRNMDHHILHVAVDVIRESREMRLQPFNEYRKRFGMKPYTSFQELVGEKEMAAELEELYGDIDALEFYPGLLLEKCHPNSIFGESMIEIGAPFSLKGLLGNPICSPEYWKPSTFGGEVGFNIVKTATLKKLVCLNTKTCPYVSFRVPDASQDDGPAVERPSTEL

[12] = biological target: Vascular endothelial growth factor receptor 2 (Homo sapiens, UniProt P35968); assay type: functional
Sequence of Vascular endothelial growth factor receptor 2 (P35968 whole entry): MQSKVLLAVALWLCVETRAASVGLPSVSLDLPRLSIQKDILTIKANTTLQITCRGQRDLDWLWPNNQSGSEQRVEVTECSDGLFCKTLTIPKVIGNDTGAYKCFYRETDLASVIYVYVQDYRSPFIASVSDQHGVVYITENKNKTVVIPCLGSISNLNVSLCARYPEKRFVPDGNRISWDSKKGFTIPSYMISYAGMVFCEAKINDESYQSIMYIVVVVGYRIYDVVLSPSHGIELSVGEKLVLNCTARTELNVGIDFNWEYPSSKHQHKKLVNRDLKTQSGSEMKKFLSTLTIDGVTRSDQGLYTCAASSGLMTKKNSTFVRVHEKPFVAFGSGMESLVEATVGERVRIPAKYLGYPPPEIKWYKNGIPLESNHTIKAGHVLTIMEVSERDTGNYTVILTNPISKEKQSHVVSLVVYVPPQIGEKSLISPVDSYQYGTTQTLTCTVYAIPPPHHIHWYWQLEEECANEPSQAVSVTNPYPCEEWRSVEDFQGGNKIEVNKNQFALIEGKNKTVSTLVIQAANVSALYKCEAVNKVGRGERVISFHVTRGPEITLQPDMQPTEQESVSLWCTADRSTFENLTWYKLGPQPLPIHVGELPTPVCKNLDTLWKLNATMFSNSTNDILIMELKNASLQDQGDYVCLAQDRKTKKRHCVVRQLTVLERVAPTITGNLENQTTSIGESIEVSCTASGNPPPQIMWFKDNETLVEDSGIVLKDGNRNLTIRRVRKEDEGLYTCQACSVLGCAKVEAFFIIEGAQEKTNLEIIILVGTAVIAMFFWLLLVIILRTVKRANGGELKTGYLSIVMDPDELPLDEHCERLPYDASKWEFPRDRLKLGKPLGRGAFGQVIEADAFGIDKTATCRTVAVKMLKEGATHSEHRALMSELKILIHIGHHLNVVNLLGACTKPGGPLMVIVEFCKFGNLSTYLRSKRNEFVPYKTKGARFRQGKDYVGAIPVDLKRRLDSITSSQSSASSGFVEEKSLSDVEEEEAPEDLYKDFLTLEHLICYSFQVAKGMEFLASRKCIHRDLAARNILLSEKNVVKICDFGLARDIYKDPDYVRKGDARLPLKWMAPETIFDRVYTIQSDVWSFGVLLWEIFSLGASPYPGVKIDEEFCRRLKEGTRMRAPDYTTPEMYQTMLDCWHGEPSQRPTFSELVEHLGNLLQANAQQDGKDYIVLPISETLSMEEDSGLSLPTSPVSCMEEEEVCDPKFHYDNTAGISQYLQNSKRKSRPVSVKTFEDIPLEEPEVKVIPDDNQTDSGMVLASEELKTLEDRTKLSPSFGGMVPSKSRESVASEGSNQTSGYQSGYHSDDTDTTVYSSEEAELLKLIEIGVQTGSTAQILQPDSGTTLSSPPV

[13] = biological target: T6, Alpha-2A adrenergic receptor (Homo sapiens, UniProt P08913)
T6 sequence (P08913 whole entry): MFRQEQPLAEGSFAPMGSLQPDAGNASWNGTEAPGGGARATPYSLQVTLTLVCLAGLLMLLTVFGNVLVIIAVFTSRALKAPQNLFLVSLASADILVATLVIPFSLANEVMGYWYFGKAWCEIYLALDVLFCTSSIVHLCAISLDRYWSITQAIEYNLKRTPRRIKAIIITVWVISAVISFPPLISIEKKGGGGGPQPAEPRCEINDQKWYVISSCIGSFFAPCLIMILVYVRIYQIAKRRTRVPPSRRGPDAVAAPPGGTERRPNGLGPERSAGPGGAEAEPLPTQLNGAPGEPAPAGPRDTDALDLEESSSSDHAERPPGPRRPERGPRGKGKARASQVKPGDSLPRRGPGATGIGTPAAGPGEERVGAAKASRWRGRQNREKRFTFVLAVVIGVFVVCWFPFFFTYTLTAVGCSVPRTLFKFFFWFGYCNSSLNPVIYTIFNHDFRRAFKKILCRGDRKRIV
Note: assay procedure not described here.

Row | SMILES | AC50 [1] [µM] | AC50 [2] [µM] | AC50 [3] [µM] | AC50 [4] [µM] | AC50 [5] [µM] | AC50 [6] | AC50 [7] [µM] | AC50 [8] [µM] | AC50 [9] [µM] | AC50 [10] [µM] | AC50 [11] [µM] | AC50 [12] [µM] | AC50 [13] [µM]
1 | CC(=O)OCC(=O)[C@@]1(O)CC[C@H]2[C@@H]3CCC4=CC(=O)CC[C@]4(C)[C@H]3C(=O)C[C@@]21C [CORTISONE ACETATE] | > 30 | > 30 | > 30 | > 30 | > 30 | – | – | – | – | – | – | – | –
2 | N[C@@H](C(=O)N[C@@H]1C(=O)N2C(C(=O)O)=C(Cl)CS[C@H]12)c1ccccc1 [CEFACLOR ANHYDROUS] | > 30 | – | > 30 | > 30 | > 30 | > 30 µM | > 30 | > 30 | – | – | – | – | –
3 | CCN(CC)CCNC(=O)c1cc(Cl)c(N)cc1OC [METOCLOPRAMIDE] | > 30 | – | > 10 | > 30 | > 10 | – | – | – | > 30 | > 10 | – | – | –
4 | COC(=O)[C@@H]1CC2=CC(=O)CC[C@]2(C)[C@@]23O[C@@H]2C[C@@]2(C)[C@@H](CC[C@@]24CCC(=O)O4)[C@H]13 [EPLERENONE] | > 30 | – | > 10 | > 30 | > 10 | – | – | – | > 30 | > 10 | – | – | –
5 | CC(C)C(=O)Nc1ccc([N+](=O)[O-])c(C(F)(F)F)c1 [FLUTAMIDE] | > 30 | > 30 | > 10 | – | > 10 | > 10 µM | > 30 | > 10 | > 30 | > 10 | > 30 | > 30 | > 30
6 | CC(C)NNC(=O)c1ccncc1 [IPRONIAZID] | > 30 | – | – | > 30 | – | > 30 µM | – | > 30 | > 30 | – | – | – | –
7 | CC[C@H](C)C(=O)O[C@H]1C[C@H](O)C=C2C=C[C@H](C)[C@H](CC[C@@H](O)C[C@@H](O)CC(=O)O)[C@H]21 [PRAVASTATIN] | > 30 | – | > 10 | > 30 | > 10 | > 30 µM | – | > 30 | > 30 | > 10 | – | – | –
8 | CN(CCOc1ccc(NS(C)(=O)=O)cc1)CCc1ccc(NS(C)(=O)=O)cc1 [DOFETILIDE] | > 30 | > 30 | > 10 | – | > 10 | – | > 30 | – | > 30 | > 10 | > 30 | > 30 | > 30
9 | CO/N=C(\C(=O)N[C@@H]1C(=O)N2C(C(=O)[O-])=C(C[N+]3(C)CCCC3)CS[C@H]12)c1csc(N)n1 | > 300 | – | > 30 | > 300 | > 30 | > 30 µM and 140 µM | > 30 | > 300 | > 300 | > 30 | – | – | –
10 | CCOC(=O)[C@H](CCc1ccccc1)N[C@@H](C)C(=O)N1CCC[C@H]1C(=O)O | > 30 | – | > 10 | > 30 | > 10 | – | – | – | > 10 | > 10 | – | – | –
11 | CN1CCCC(n2nc(Cc3ccc(Cl)cc3)c3ccccc3c2=O)CC1 (configuration not stated) [AZELASTINE] | 1.1 | – | – | > 30 | – | > 30 µM | – | > 30 | 23 | – | – | – | –
12 | O=C(CCCCCCC(=O)Nc1ccccc1)NO [VORINOSTAT] | > 30 | – | > 30 | > 30 | > 30 | > 30 µM | > 30 | > 30 | > 30 | > 10 | – | – | –
13 | CCC[C@@H]1C[C@@H](C(=O)N[C@@H]([C@H]2O[C@H](SC)[C@H](O)[C@@H](O)[C@H]2O)[C@H](C)Cl)N(C)C1 [CLINDAMYCIN] | > 30 | – | > 10 | > 30 | > 10 | – | – | – | > 30 | > 10 | – | – | –
14 | CC(C)Cc1ccc(CC(=O)O)cc1 [IBUFENAC] | > 30 | – | – | > 30 | – | > 30 µM | – | > 30 | > 30 | – | – | – | –
15 | CCc1ccc(CCOc2ccc(CC3SC(=O)NC3=O)cc2)nc1 (configuration not stated) [PIOGLITAZONE] | – | > 30 | > 10 | – | > 10 | – | > 30 | – | > 10 | > 10 | > 30 | > 30 | > 30
16 | NC(N)=Nc1nc(CSCCC(N)=NS(N)(=O)=O)cs1 [FAMOTIDINE] | > 30 | – | > 10 | > 30 | > 10 | – | – | – | > 10 | > 10 | – | – | –
17 | NC(=O)c1cnccn1 [PYRAZINAMIDE] | 28 | > 30 | > 30 | – | > 30 | > 30 µM | > 30 | > 30 | > 30 | > 30 | > 30 | > 30 | > 30
18 | Cc1cccc(C)c1OCC(C)N (configuration not stated) [MEXILETINE] | > 30 | – | – | > 30 | – | > 30 µM | > 30 | > 30 | – | – | – | – | –
19 | CC(=O)c1ccc2c(c1)N(CCCN1CCN(CCO)CC1)c1ccccc1S2 [ACETOPHENAZINE] | 0.0045 | – | – | > 30 | – | > 3 µM | – | > 30 | > 30 | – | – | – | –
20 | NC(=O)c1ncn([C@@H]2O[C@H](CO)[C@@H](O)[C@H]2O)c1O [MIZORIBINE] | > 30 | – | > 30 | > 30 | > 30 | > 30 µM | > 30 | > 30 | – | – | – | – | –
21 | OC[C@@H](O)[C@@H](O)[C@H](O)[C@H](O)CO [MANNITOL] | – | > 30 | – | – | – | – | – | – | – | – | > 30 | > 30 | > 30
